Each block holds one compound with its values, some of them ahead of it. Active and inactive are the calls of the source.
Experiments:
[1] = test system: HEK293; assay: membrane integrity loss in HEK cells – cell-based, fluorescence, cytotoxicity control for IDE activator project, dose response (AID 588440); assay type: functional; settings: Homo sapiens;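 also: cytotoxicity by LDH release measuring loss of membrane integrity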
[2] = molecular target: T1, Insulin-degrading enzyme (Homo sapiens, UniProt P14735); assay: recombinant IDE activation, cell-free – biochemical, fluorescence polarization, counter-screen for IDE activator project, dose response (AID 588681)
T1 sequence (P14735 whole entry): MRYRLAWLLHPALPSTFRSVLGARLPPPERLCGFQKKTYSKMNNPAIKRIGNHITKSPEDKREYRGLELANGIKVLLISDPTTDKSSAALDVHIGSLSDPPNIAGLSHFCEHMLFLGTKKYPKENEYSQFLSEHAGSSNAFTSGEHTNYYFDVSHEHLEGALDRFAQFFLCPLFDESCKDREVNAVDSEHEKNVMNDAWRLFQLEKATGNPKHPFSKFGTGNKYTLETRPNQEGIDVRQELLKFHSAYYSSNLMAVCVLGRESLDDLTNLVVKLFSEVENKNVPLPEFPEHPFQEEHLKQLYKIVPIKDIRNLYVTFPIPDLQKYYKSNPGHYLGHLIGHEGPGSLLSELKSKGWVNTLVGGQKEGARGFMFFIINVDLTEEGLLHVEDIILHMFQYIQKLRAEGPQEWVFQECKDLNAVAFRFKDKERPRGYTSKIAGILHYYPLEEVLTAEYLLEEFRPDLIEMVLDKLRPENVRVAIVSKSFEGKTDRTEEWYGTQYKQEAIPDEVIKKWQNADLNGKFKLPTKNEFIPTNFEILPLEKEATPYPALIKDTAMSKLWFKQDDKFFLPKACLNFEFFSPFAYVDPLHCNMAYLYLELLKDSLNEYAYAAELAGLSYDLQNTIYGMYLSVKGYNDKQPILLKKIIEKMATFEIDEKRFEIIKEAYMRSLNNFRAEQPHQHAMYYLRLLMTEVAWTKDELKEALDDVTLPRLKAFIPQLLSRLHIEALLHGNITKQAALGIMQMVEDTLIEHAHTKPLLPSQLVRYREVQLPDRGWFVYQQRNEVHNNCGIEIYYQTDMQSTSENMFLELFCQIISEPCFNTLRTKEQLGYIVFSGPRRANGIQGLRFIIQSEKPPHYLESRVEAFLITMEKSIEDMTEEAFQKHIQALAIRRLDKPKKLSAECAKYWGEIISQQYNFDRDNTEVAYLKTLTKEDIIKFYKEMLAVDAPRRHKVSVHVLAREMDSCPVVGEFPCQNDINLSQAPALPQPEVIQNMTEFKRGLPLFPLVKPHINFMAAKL

[3] = test system: HEK293; assay: optical interference in Abeta FP readout, dose response, artefact control for IDE activator project, biochemical, fluorescence polarization (AID 588442); assay type: functional, cell-based; settings: Homo sapiens
[4] = molecular target: T1, Insulin-degrading enzyme; assay: cellular IDE activation of Abeta substrate cleavage – fluorescence polarization, HEK cells, dose response (AID 588439); assay type: functional, cell-based
[5] = molecular target: T2, Apoptotic protease-activating factor 1 (Homo sapiens, UniProt O14727); assay type: functional
T2 sequence (O14727 whole entry): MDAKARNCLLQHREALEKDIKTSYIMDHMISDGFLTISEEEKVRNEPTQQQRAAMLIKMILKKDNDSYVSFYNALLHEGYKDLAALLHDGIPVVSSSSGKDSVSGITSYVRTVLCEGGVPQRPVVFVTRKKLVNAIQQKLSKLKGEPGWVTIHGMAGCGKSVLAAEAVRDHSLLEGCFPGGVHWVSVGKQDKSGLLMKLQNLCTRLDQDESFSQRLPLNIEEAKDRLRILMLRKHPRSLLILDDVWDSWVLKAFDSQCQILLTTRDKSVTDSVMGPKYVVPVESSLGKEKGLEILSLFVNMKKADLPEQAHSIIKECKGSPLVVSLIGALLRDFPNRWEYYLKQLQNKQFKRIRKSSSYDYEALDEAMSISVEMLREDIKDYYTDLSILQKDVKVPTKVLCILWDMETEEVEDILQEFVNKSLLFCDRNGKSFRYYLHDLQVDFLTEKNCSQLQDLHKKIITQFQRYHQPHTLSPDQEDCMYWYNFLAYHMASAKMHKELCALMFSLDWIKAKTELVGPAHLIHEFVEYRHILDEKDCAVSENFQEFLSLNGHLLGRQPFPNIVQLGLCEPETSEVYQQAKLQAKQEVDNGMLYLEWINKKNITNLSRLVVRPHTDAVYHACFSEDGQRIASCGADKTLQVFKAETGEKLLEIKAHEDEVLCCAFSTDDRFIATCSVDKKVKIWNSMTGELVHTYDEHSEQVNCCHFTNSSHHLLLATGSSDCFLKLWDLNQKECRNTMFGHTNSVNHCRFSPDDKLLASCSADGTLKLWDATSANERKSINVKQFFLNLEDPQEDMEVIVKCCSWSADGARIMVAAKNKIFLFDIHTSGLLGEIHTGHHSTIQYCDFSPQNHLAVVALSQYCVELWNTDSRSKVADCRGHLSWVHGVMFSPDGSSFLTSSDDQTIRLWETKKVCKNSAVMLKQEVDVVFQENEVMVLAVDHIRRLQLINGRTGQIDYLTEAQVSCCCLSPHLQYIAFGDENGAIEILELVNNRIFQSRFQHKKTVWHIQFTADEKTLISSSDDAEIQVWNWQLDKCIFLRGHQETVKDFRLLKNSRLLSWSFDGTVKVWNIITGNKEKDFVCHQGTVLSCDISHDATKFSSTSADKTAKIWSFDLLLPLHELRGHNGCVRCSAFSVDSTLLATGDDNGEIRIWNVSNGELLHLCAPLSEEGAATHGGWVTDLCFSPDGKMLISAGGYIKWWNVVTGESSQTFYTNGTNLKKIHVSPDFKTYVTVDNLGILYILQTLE

[6] = molecular target: Serine/threonine-protein phosphatase (Homo sapiens, UniProt Q9BPW0); assay: inhibition of protein phosphatase 5 activity – biochemical, fluorescence, dose response (AID 2395)
[7] = molecular target: T3, Caspase-6 (Homo sapiens, UniProt P55212); assay: inhibition of CASP6 peptide cleavage – biochemical, VEID-R110 fluorescence, cherry-pick, dose response (AID 720632)
T3 sequence (P55212 whole entry): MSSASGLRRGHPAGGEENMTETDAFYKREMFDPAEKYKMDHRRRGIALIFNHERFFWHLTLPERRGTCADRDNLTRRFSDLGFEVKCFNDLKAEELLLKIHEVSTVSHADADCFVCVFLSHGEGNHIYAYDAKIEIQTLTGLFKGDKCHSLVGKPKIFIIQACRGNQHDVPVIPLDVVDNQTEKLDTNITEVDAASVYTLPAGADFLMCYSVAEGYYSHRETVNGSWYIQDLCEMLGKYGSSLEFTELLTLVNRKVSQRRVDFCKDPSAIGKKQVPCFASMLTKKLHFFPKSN

[8] = molecular target: Serine/threonine-protein phosphatase PP1-alpha catalytic subunit (Homo sapiens, UniProt P62136); assay: inhibition of protein phosphatase 1 activity – biochemical, fluorescence, dose response (AID 2394)
[9] = molecular target: T4, Sentrin-specific protease 8 (Homo sapiens, UniProt Q96LD8); assay: inhibition of human SENP8 cleavage activity – biochemical, luminescence, SAR follow-up (AID 504501); assay type: functional
T4 sequence (Q96LD8 whole entry): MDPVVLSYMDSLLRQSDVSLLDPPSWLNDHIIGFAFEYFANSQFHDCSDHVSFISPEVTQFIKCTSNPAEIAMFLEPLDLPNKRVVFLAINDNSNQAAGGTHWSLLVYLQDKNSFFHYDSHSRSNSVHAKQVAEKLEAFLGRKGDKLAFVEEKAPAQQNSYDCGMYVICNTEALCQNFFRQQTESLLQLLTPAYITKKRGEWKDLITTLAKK

[10] = molecular target: T5, Caspase-3 (Homo sapiens, UniProt P42574); assay: SAR Analysis of small molecule inhibitors of Sentrin-specific proteases (SENPs) using a Caspase-3 Selectivity assay. [Related pubchem assays (depositor defined):AID2540, AID2599, AID434973, AID489001]; assay type: functional
T5 sequence (P42574 whole entry): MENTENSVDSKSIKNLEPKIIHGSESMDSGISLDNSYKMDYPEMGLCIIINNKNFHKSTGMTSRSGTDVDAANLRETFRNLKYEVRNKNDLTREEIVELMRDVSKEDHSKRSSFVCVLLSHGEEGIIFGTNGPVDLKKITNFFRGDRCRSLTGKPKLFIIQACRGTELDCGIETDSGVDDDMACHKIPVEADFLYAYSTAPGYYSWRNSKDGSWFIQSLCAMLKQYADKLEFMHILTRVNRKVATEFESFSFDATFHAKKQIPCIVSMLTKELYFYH

[11] = molecular target: T6, Sentrin-specific protease 7 (Homo sapiens, UniProt Q9BQF6); assay: inhibition of human SENP7 cleavage activity – biochemical, luminescence, SAR follow-up (AID 504497); assay type: functional
T6 sequence (Q9BQF6 whole entry): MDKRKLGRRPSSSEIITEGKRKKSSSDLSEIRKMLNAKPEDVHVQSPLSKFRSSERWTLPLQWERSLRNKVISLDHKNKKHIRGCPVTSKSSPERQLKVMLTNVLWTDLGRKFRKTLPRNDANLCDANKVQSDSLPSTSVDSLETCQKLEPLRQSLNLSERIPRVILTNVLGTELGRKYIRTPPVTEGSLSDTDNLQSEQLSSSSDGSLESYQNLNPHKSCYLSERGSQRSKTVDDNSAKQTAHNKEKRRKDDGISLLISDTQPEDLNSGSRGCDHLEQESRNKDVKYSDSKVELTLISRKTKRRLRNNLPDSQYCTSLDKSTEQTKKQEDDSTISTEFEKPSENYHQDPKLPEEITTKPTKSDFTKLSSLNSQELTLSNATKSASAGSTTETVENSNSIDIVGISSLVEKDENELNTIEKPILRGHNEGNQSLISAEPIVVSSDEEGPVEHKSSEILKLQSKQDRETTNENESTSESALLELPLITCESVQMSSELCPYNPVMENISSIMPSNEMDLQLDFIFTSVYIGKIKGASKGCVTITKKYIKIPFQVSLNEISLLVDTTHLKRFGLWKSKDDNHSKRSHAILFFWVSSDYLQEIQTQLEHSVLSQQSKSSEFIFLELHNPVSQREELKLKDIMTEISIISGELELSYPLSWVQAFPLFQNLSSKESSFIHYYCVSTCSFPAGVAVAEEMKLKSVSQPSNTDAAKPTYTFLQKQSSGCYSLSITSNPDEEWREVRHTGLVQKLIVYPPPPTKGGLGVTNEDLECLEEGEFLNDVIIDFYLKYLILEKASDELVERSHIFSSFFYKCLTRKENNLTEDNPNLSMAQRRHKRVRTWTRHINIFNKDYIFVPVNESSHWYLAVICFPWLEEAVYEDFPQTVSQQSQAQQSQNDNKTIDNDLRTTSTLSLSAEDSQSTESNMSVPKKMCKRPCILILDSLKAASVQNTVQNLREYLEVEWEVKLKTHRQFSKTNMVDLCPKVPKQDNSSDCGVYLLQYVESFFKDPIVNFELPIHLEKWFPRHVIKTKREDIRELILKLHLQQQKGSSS

[12] = molecular target: T7, Sentrin-specific protease 6 (Homo sapiens, UniProt Q9GZR1); assay: SAR Analysis of small molecule inhibitors of Sentrin-specific protease 6 (SENP6) using a Luminescent assay. [Related pubchem assays (depositor defined):AID2582, AID2599]; assay type: functional
T7 sequence (Q9GZR1 whole entry): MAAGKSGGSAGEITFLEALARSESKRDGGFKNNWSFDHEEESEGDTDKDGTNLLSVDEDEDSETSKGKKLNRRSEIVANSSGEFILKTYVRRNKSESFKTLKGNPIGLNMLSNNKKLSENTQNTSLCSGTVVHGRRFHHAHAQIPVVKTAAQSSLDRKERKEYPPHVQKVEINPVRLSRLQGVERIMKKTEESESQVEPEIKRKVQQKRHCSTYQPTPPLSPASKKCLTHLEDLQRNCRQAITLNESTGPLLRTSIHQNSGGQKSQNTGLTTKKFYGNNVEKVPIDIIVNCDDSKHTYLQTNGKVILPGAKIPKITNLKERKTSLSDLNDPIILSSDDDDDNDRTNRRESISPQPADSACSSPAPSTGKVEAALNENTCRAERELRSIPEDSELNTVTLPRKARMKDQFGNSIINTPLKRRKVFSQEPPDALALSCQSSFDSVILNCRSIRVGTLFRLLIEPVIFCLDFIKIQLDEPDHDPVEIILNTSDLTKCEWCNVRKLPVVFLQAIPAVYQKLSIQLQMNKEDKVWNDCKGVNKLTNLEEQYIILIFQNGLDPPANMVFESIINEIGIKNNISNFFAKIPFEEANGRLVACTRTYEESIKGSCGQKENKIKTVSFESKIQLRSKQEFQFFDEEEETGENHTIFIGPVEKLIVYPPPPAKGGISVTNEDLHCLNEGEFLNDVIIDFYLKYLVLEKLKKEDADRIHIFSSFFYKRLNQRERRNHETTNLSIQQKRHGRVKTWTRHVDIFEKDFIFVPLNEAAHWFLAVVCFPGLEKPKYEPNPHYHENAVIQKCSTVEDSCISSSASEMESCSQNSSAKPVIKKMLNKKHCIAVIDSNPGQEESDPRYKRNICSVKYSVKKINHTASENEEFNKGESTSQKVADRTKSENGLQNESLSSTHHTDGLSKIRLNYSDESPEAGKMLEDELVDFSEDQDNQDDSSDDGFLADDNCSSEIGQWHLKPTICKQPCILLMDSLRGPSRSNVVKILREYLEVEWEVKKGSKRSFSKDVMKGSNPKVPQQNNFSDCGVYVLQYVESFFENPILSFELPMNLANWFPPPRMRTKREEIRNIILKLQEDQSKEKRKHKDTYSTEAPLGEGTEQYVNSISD

[13] = molecular target: Melanin-concentrating hormone receptor 1 (Homo sapiens, UniProt Q99705); assay: Late-stage fluorescence-based counterscreen for antagonists of the G-protein coupled receptor 7 (GPR7): cell-based dose response assay to identify antagonists of the melanin-concentrating hormone receptor 1 (MCHR1) Set 5.; assay type: functional
Sequence of Melanin-concentrating hormone receptor 1 (Q99705 whole entry): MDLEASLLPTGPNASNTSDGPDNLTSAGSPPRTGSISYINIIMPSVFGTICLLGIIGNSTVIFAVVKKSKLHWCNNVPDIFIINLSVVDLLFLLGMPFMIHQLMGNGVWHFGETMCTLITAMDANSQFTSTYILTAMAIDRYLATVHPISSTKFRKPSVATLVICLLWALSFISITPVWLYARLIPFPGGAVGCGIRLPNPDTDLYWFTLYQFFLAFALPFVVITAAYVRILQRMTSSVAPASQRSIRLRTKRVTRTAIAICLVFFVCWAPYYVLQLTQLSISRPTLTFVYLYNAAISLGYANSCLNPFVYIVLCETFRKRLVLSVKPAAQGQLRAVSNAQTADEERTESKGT

Sequence of Serine/threonine-protein phosphatase (Q9BPW0 whole entry): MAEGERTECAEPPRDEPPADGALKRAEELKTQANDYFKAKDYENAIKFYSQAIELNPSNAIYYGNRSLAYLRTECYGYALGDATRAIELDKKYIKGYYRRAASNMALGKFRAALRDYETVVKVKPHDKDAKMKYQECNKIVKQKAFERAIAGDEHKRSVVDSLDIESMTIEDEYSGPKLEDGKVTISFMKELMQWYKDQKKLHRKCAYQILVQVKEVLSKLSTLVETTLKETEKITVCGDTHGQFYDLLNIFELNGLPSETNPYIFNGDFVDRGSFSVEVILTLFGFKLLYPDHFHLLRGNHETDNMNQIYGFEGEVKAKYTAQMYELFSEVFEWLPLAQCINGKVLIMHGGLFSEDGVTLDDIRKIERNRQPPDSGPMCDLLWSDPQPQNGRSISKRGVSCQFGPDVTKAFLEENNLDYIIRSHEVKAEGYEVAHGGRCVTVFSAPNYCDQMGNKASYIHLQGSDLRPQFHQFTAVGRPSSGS
Sequence of Serine/threonine-protein phosphatase PP1-alpha catalytic subunit (P62136 whole entry): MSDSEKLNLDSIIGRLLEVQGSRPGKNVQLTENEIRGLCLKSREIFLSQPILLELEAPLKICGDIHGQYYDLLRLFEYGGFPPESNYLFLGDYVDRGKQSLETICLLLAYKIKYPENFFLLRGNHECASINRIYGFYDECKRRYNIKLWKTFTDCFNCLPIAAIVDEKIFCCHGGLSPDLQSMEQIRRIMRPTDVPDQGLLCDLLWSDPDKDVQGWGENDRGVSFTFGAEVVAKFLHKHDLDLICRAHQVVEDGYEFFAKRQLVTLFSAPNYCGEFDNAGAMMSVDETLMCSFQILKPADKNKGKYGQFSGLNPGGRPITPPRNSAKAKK

Structure (SMILES): O=C1c2ccccc2C(Nc2ccc3[nH]c(-c4cccnc4)nc3c2)N1Cc1ccco1 (stereo not drawn)
- IC50 [1]: > 89.1 µM (inactive)
- EC50 [2]: > 54.6 µM (inactive)
- EC50 [3]: > 55.9 µM (inactive)
- EC50 [4]: > 54.6 µM (inactive)

- IC50 [5]: 19.4 µM (active)
- IC50 [6]: 11.8 µM (not active)
- AC50 [7]: 8.77 µM (active)
- IC50 [8]: 57.6 µM (not active)
Structure (SMILES): COC(=O)CCC(=O)OC1(C)C(=O)C=C2C=C(C3CC3)N(CCCCO)C=C2C1=O (stereo not drawn)

- IC50 [10]: > 99 µM (inactive)
- IC50 [11]: > 99 µM (inactive)
- IC50 [12]: > 99 µM (inactive)
Structure (SMILES): Fc1ccc(N/N=C/c2cn(Cc3ccccc3)c3ccccc23)cc1
- IC50 [9]: > 99 µM (inactive)

- IC50 [13]: 1.95 µM (active)
Structure (SMILES): COc1ccc(Oc2c(Cl)cnn(Cc3ccccc3C(C)C)c2=O)cc1

Reference: ChEMBL document CHEMBL1201862, “PubChem BioAssay data set” (2004)
